The values that follow come from paper PMC9823356, “Inhibition of Cancer Cell Proliferation and Bacterial Growth by Silver(I) Complexes Bearing a CH3-Substituted Thiadiazole-Based Thioamide” (Molecules, 2023).

Assay [1] relates to MRC5 human normal lung cells. The assay can be described thus: MTT cytostatic/cytotoxic assay. To be noted: MRC5, 48 h treatment. In kind it is cell-based. The protocol: (§1) The cell lines were obtained from the American Type of Culture collection (ATCC), except HuP-T3 which was kindly donated from University of Crete, School of Medicine, Greece, and were grown in different culture medium according to the instructions.
(§2) For the determination of the cell viability, it was employed the MTT assay. Cells were plated in 96-well plate at a density of 1 × 10^4 cells/mL per well and maintained for 72 h at 37 °C in a 5% CO2 incubator and grown as monolayers. […] The viability of cultured cells was estimated by a (3-(4,5-imethylthiazol-2-yl)-2,5-diphenyltetrazolium bromide (MTT) metabolic assay as previously described.
(§3) In brief, MTT (Sigma, St Louis, Missouri, USA) was dissolved in PBS in a concentration of 5 mg/mL, filter sterilized, and stored at 4 °C. Then, 50 μL of stock solution was added to each culture and incubated for 3 h at 37 °C. Formazan crystals were solubilized by DMSO (100 μL). Absorbance of the converted dye was measured at a wavelength of 540 nm on ELISA reader (VersaMax Microplate Reader Orleans, USA). […] Using seven absorbance measurements [time 24 h (Ct24), control growth 72 h (Ct72), and test growth in the presence of drug at five concentration levels (Tt72x)], the percentage of growth was calculated at each level of the drug concentrations. The percentage growth inhibition was calculated according to National Cancer Institute (NCI) as: {[(Tt72x) − (Ct24)]/[(Ct72) − (Ct24)]} × 100 for concentrations for which Tt72x>Ct24 and {(Tt72x) − (Ct24)]/(Ct24)} × 100 for concentrations for which Tt72x<Ct24. […] All experiments were carried out in triplicate. A significant difference was presumed to exist when p ≤ 0.05 (two tailed paired t test).

Assay [2] has as its system DMS114 small cell lung cancer cells. Kind of assay: MTT cytostatic/cytotoxic assay. In kind it is cell-based, human. To be noted: DMS114, 48 h treatment. Here is the method:
as §1, §2
as §3, with “Using seven absorbance measurements [time 24 h (Ct24), control growth 72 h (Ct72), and test growth in the presence of drug at five concentration levels (Tt72x)], the percentage of growth was calculated at each level of the drug concentrations.” left out

Assay [3] concerns SKOV-3 ovarian cancer cells. The assay can be described thus: MTT cytostatic/cytotoxic assay. Type of assay: cell-based, human. Conditions: SKOV-3, 48 h treatment. Here is the method: as §1, §2
as §3, with “Using seven absorbance measurements [time 24 h (Ct24), control growth 72 h (Ct72), and test growth in the presence of drug at five concentration levels (Tt72x)], the percentage of growth was calculated at each level of the drug concentrations.” left out

Assay [4] relates to Hup-T3 pancreatic adenocarcinoma cells. Kind of assay: MTT cytostatic/cytotoxic assay. In kind it is cell-based, human. Conditions: Hup-T3, 48 h treatment. The protocol:
as §1, §2, §3

Assay [5] relates to PC3 prostate adenocarcinoma cells. Kind of assay: MTT cytostatic/cytotoxic assay. Type of assay: cell-based, human. Conditions: PC3, 48 h treatment. The protocol: as §1, §2, §3
The subject of assay [6] is calf-thymus (CT) DNA. Kind of assay: DNA viscosity measurements. In kind it is binding. Here is the method: All measurements were performed at room temperature. The obtained data are presented as (η/η0)^1/3 versus r where η is the viscosity of DNA in the presence of the studied compound, η0 is the viscosity of DNA alone in buffer solution and r = [complex]/[DNA]. DNA-length (L/L0), according to the equation L/L0 = (η/η0)^1/3. […] In the particular case of intercalation, an increase in the separation distance of the DNA-base pairs can be induced in order to host the inserting compound resulting in an increase of the relative DNA-viscosity. On the other hand, when a compound binds to DNA-grooves via non-classic intercalation (i.e., electrostatic interaction or external groove-binding) the DNA-viscosity may show a slight decrease or remain unchanged, because of a bend of DNA double helix which leads to shortening of DNA length.

In assay [7] the test system is EB–DNA conjugate (CT DNA). Kind of assay: EB-DNA competitive binding, fluorescence quenching. More on the design: species or system calf. From the text:
The potential EB-displacing ability of the compounds was studied by a stepwise addition of a compound’s solution into the EB–DNA solution. The resultant changes were monitored by recording the variation of fluorescence emission spectra with excitation wavelength at 540 nm. […] The Stern-Volmer constant (KSV, in M^−1) is used to evaluate the quenching efficiency for each compound according to the Stern-Volmer equation (Equation (2)):(2) Io/I=1+kqτ0[Q]=1+KSV[Q] where Io and I are the emission intensities of the EB–DNA solution in the absence and the presence of the quencher, respectively, [Q] is the concentration of the quencher, τo = the average lifetime of the emitting system without the quencher and kq = the quenching constant. KSV may be obtained from the Stern-Volmer plots by the slope of the diagram Io/I versus [Q]. Taking τo = 23 ns as the fluorescence lifetime of the EB–DNA system, the quenching constants (kq, in M^−1s^−1) of the compounds can be determined according to Equation (3):KSV = kqτo(3)

Assay [8] deals with calf-thymus (CT) DNA. Kind of assay: CT DNA interaction by UV-visible spectroscopy. To be noted: upon addition of CT DNA.
Procedure: The UV-visible spectra of CT DNA solution (1.5 × 10^−4 M) were recorded in the presence of each compound at diverse [compound]/[DNA] mixing ratios (r).
The mark [9] stands for this setting: cytocidal/cytotoxic, read-out: IC50 (the source's name).

For [Ag(mtdztH)(dppe)(NO3)]n [Compound 4], the figures for the IC50 in assay [1] (cytocidal/cytotoxic) and in assay [4] (cytocidal/cytotoxic) were 4400 ± 80 nM and 3000 ± 40 nM, respectively. In addition, the GI50 (usually the concentration that inhibits growth by half) in assay [1] (growth inhibition) stood at 1200 ± 50 nM; in assay [2] (growth inhibition), 500 ± 40 nM; in assay [3] (growth inhibition), 1000 ± 20 nM; in assay [4] (growth inhibition), 400 ± 20 nM; in assay [5] (growth inhibition), 600 ± 30 nM. Moreover, the TGI in assay [1] (total growth inhibition) is reported as 2.8±0.05 μΜ; in assay [2] (total growth inhibition), 1.0±0.05 μΜ; in assay [3] (total growth inhibition), 2.0±0.03 μΜ; in assay [4] (total growth inhibition) it was 0.9±0.04 μΜ; in assay [5] (total growth inhibition) it was 1.6±0.03 μΜ. The LC50 in assay [2] (setting [9]) was 3100 ± 50 nM; in assay [3] (setting [9]), 2300 ± 50 nM; in assay [5] (setting [9]), 3600 ± 50 nM. The “relative DNA viscosity change” value was “moderate increase” in assay [6] (higher concentrations, r > 0.15) and “remained almost unchanged” in assay [6] (low concentrations, up to r = 0.15). Also, the “EB-DNA Stern–Volmer constant KSV” value in assay [7] is recorded as 5.68 (±0.20) × 10^4 M^−1. In addition, the “EB–DNA fluorescence quenching ΔI/Iο” value in assay [7] (λex 540 nm) was 27.6%. Also, the “percentage of hyper-/hypochromism ΔA/Aο” value in assay [8] (DMSO solution, + hyperchromism, – hypochromism) is given as “–13%”. Also, in assay [8], the “hypochromism (intensity decrease) of absorption band at 272 nm” value is “up to 13%”.
